Experimental data as given in US9375496B2, “Halogenated compounds for cancer imaging and treatment and methods for their use” (The University of British Columbia, priority 2013, dated 2016).

Columns and labels:
AR = biological target: T1, AR (Homo sapiens, UniProt P10275, T878A); experiment: PSA(6.1 kb)-luciferase reporter assay in LNCaP cells (androgen-induced AR transcriptional activity); type: cell-based
T1 construct: LNCaP cells with endogenous AR; endogenous in cells; host or cells: LNCaP
T1 sequence (P10275 1-920 T878A): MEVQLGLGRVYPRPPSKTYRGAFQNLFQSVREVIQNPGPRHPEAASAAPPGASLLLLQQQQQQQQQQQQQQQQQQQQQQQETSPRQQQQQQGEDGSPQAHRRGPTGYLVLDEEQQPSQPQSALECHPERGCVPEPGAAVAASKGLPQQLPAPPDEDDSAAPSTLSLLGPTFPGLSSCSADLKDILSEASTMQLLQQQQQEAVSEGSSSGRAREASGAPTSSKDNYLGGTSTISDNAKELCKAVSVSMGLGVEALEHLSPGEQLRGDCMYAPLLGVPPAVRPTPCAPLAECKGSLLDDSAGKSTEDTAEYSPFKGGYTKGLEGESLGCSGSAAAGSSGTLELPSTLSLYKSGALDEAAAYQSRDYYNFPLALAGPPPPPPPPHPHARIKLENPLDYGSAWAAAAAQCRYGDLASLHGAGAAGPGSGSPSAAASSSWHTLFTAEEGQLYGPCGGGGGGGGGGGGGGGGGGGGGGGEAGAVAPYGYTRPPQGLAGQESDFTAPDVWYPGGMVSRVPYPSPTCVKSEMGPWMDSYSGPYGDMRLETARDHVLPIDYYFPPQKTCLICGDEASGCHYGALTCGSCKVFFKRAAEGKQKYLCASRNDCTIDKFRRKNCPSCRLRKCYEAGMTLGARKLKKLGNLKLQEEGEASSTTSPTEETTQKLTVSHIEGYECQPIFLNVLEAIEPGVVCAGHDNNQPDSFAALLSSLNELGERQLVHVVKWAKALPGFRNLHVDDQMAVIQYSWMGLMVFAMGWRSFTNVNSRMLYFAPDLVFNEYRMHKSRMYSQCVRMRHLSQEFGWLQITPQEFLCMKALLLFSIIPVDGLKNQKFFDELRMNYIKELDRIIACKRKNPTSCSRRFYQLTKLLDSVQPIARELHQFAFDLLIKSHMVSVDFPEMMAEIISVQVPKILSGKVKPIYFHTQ
Description: The PSA-luciferase (6.1 kb) reporter contains functional AREs to which AR binds in response to androgen to induce luciferase activity. LNCaP cells were transfected with the PSA(6.1 kb)-luciferase reporter for 24 h, and then treated with indicated concentration of 8d (also referred as EPI-iodide or iodinated EPI) with synthetic androgen, R1881 (1 nM) for 24 h. After 24 h of incubation with R1881, the cells were harvested, and relative luciferase activities were determined (FIG. 1A). To determine the IC50, treatments were normalized to the predicted maximal activity induction (in the absence of test compounds, vehicle only) (FIG. 1B).
To measure effect on AR, after the LNCaP cells were transfected with the PSA(6.1 kb)-luciferase reporter for 24 h, they were then treated with DMSO, 5 μM MDV3100, 25 μM Z (also referred to as EPI-002 or EPI), or 1.9 μM 8d with or without 1 nM R1881 for 24 h (FIG. 2A).
LNCaP cells were transiently transfected with PSA (6.1 kb)-luciferase for 24 h prior to pre-treatment with compounds of the invention (e.g., compounds 9d, 10d, 11d) ranging in concentration from 62.5 ng/ml to 1.5 ug/ml for 1 hour before the addition of vehicle, or synthetic androgen, R1881 (1 nM) to induce luciferase production. After 24 h of incubation with R1881, the cells were harvested, and relative luciferase activities were determined. To determine the IC50, treatments were normalized to the predicted maximal activity induction (in the absence of test compounds, vehicle only) (FIG. 1B).

recombinant LBD of PR = biological target: T2, recombinant LBD of PR (Homo sapiens, UniProt P06401); experiment: Competitive ligand-binding assay (fluorescent polarization), recombinant PR LBD; details: 1 nM fluorescently labeled ligand, 5 h incubation, serial dilution
T2 sequence (P06401 679-913 limits assumed): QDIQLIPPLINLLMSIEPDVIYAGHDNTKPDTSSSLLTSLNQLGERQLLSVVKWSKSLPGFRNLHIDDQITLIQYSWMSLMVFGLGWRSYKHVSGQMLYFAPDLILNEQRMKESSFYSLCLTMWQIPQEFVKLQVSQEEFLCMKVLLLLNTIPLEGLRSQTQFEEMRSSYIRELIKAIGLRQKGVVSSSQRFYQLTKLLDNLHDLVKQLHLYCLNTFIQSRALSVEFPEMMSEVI
Description: (§1) Competitive ligand-binding assays to detect the displacement of fluorescently labeled ligand from recombinant LBDs (ligand binding domains) of AR, PR, GR and estrogen receptor (ER) by R1881, MDV3100, Z (also referred to as EPI-002 or EPI) or 8d (also referred to as iodinated EPI) were performed. FIGS. 14A-14E display competitive ligand-binding curves to indicate whether R1881, Z, antiandrogens (enzalutamide, hydroxyflutamide, bicalutamide) or 8d can displace 1 nM fluorescently labeled cognant ligand from recombinant LBDs of steroid hormone receptors by using fluorescent polarization (mP). Serial dilution was performed for each test compound. Mixtures were incubated for 5 h before measurement of fluorescent polarization.

[1] = biological target: T3, recombinant LBD of estrogen receptor (ER) (Homo sapiens, UniProt P03372); experiment: Competitive ligand-binding assay (fluorescent polarization), recombinant ER LBD; details: 1 nM fluorescently labeled ligand, 5 h incubation, serial dilution
T3 sequence (P03372 311-547 limits assumed): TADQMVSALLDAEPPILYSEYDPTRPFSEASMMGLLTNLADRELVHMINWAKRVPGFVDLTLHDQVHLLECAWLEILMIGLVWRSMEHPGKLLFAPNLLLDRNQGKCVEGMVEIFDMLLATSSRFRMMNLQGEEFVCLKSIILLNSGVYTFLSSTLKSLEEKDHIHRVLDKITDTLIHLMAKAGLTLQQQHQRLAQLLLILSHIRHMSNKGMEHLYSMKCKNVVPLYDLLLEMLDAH
Description: as §1

DU145 cells = experiment: DU145 cell viability, alamarBlue Cell Viability Assay; type: cell-based; details: day 3, at concentrations that reduced LNCaP proliferation
Text: Effects of 8d (also referred to as I-EPI-002) on androgen-dependent proliferation of LNCaP cells treated with R1881 were compared with PC3 and DU145 cell viability by alamarBlue Cell Viability Assay (FIG. 16).

Structure (SMILES): CC(C)(c1ccc(OC[C@H](O)CO)cc1)c1ccc(OC[C@H](O)CCl)c(I)c1 [Compound 8d, (R)-3-(4-(2-(4-((S)-3-chloro-2-hydroxypropoxy)-3-iodophenyl)propan-2-yl)phenoxy)propane-1,2-diol]
- androgen-induced PSA luciferase activity (AR; 1.9 μM 8d, 1 nM R1881, 24 h, LNCaP cells (FIG. 2A)): strongly inhibited
- IC50 (AR; LNCaP cells, PSA(6.1 kb)-luciferase, R1881 1 nM 24 h, representative experiment, read-out: IC50 for inhibition of AR transcriptional activity): 1170 ± 220 nM
- binding to LBD of PR (displacement of fluorescently labeled ligand) (recombinant LBD of PR): does not bind
- binding to LBD of ER (displacement of fluorescently labeled ligand) [1]: does not bind
- viability of DU145 cells (DU145 cells): no effect
